Results published in patent US20150099753A1, “FORM 5 POLYMORPH OF 7-(TERT-BUTYL-D9)-3-(2,5-DIFLUOROPHENYL)-6-((1-METHYL-1H-1,2,4-TRIAZOL-5-YL)METHOXY)-[1,2,4]TRIAZOLO[4,3-B]PYRIDAZINE” (Concert Pharmaceuticals Inc., priority 2012, published 2015).

What was measured:
Type in all cases: physicochemical
[1] = Physical (crystal form) stability on exposure to ambient conditions or relative humidity
[2] = Crystal form stability when suspended and stirred in MeOH:water; settings: stirred for 72 hours at ambient temperature
[3] = Dynamic Vapor Sorption (DVS) analysis; settings: DVS at 25° C., 0% RH to 90% RH cycles
Description: Dynamic Vapor Sorption (DVS). DVS experiments were conducted on a Surface Measurement Systems DVS-HT at 25° C. The instrument was operated in step mode and the relative humidity was increased in 10% RH increments from 40% RH to 90% RH, then decreased from 90% RH to 0% RH, then increased from 0% RH to 90% RH, then decreased from 90% RH to 0% RH. An extra step at 75% RH was included in each cycle. The mass equilibrium criterion was set at 0.005% change in mass over time (dm/dt) prior to each humidity level. A minimum step time of 10 minutes and a maximum step time of 240 minutes were specified.

[4] = Relative thermodynamic stability of non-solvated forms (ripening studies); settings: temperatures from between 22° C. and 70° C.
Description: Excess Form 1 was combined with EtOH (1.8 mL) and the suspension was stirred at 57° C. for 6 hrs. The suspension was allowed to settle, and the saturated EtOH solution was isolated, and added into a 2-mL vial containing a mixture of Forms 1, Form 3, and Form 4 ([…] of each). The suspension was stirred at 57° C. for 24 hrs. The solid was isolated on a Büchner funnel and air-dried for ˜6 hrs.
Once the above preparation of Form 5 was obtained, additional Form 5 was produced as follows. Form 1 (100 mg) was weighed into a […] 4-mL vial containing a stir-bar. EtOH (4-mL) was added and the suspension was stirred for 12 hrs and at 25° C. The suspension was filtered and the filtrate (1.8 mL) was added into a 2-mail vial containing equivalent amounts (10 mg) of Forms 3, 4, and 5. An aliquot of the suspension was immediately sampled; the solid was isolated by filtration, and analyzed by PXRD to verify the crystal-form. The suspension was stirred at 25° C. for an additional 24 hrs. A second aliquot was sampled; the solid was isolated by filtration, and analyzed to verify the crystal-form. […]
Once Form 5 crystals were isolated they were used to prepare additional Form 5 as follows. […] The solid was isolated on a Büchner funnel and air-dried for ˜6 hrs and determined to be Form 5.

Q: Which results are given for `[2H]C([2H])([2H])C(c1cc2nnc(-c3cc(F)ccc3F)n2nc1OCc1ncnn1C)(C([2H])([2H])[2H])C([2H])([2H])[2H]` [Form 5, 7-(tert-Butyl-d9)-3-(2,5-difluorophenyl)-6-((1-methyl-1H-1,2,4-triazol-5-yl)methoxy)-[1,2,4]triazolo[4,3-b]pyridazine]?
A: physical stability ([1]; exposed to 75% relative humidity for 5 days): physically stable; physical stability ([1]; exposed to 97% RH for 5 days at room temperature): physically unstable and partially converts to hydrated crystal Form 2; physical stability ([1]; exposed to ambient conditions for at least 7 days): physically stable; crystal form conversion in suspension ([2]; suspended in MeOH:water 95:5% volume): converts to Form 2; crystal form conversion in suspension ([2]; suspended in MeOH:water 98:2% volume): converts to Form 2; DVS weight gain (hygroscopicity; non-hygroscopic) [3]: < 0.4 % wt. gain; thermodynamic stability relative to other non-solvated forms (Forms 1, 3 and 4) [4]: more thermodynamically stable than any of the other non-solvated forms
